According to article PMC12539213, “Molecular targeting of the deubiquitinase USP14 to circumvent cisplatin resistance in ovarian carcinoma and identification of novel inhibitors” (Cancer Drug Resistance, 2025):

Legend:
[1] = target: T1, USP14 (ubiquitin-specific protease 14) (Homo sapiens, UniProt P54578); assay: Ub-Rho110-G hydrolysis assay, recombinant USP14 with Ub-VS-treated […] proteasome, dose-response; format: biochemical
T1 construct: USP14 (6His-tagged), 64-0018-050, Ubiquigent; with Ub-VS-treated human 26S proteasome

[2] = target: T1, USP14 (ubiquitin-specific protease 14); assay: Ub-Rho110-G hydrolysis assay, positive control at […] ([…] inhibition) and […] ([…]); also HA-Ub-VS labeling in IGROV-1/Pt1 cells; format: biochemical

T1 sequence (P54578 whole entry): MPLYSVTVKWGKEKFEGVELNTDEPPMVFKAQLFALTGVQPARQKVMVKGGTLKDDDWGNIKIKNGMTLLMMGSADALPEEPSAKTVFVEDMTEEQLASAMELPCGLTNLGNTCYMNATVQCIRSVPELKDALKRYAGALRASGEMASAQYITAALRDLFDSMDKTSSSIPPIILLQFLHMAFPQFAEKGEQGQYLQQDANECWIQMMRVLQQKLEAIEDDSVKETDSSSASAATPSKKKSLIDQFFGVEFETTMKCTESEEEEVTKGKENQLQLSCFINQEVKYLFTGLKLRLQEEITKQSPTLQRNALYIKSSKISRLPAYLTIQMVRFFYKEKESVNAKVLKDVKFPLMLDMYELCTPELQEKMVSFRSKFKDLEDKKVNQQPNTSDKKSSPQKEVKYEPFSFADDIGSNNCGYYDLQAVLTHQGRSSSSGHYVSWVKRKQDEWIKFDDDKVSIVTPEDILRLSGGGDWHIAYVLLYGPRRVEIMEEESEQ

SMILES	IC50 [1]	IC50 [2]
CC1=NN(c2cccc(NC(=O)c3ccccc3Cn3ccnc3)c2)C(=O)C1 [ARN12502]	18.4 ± 2.2 µM	
Cc1cc(C(=O)CN2CCCCC2)c(C)n1-c1ccc(Cl)cc1 [IU1-47]		~ 200 nM
